Primed or numbered codes have the meaning given here. Where no end group is shown, it is not given here. [ ]: non-standard residue; d: D form. Dab′ = 2,3-diamino butyric acid; Nva = CCC[C@H](N)C(=O)O

What all share (type): in vivo, C57BL/6 mice
The subject of assay [1] is Experimental dry eye (EDE) mice. The assay is described as follows: Corneal fluorescein staining in experimental dry eye mice (Example 4). To be noted: single treatment, topical; D5 and D10. Here is the method:
Experimental dry eye (EDE) was induced in 8-week old female C57BL/6 mice by subcutaneous injection of 0.5 mg/0.2 mL scopolamine hydrobromide (Sigma-Aldrich, St. Louis, Mo.) three times a day (9 AM 0.3 mL, 1:30 PM 0.3 mL, and 6:00 PM 0.3 mL). The mice were also exposed to an air draft and 30% ambient humidity. Five experimental groups used in this study included: (1) untreated control mice (UT; no dry eye treatment and no topical treatment); (2) EDE control mice received a balanced salt solution (BSS); (3) EDE mice received ADP 355 0.1% (single chain adiponectin peptidomimetic (ADP 355) in BSS); (4) EDE mice received Lifitegrast 5%; and (5) EDE mice received 0.1% peptide adiponectin peptidomimetic (ADP 355) in BSS+Lifitegrast 5%. […] Mice were evaluated at baseline, day 5 and day 10 after the treatment initiation.
Experiment 2—Corneal staining: The purpose of the corneal staining assay was to evaluate damage to the cornea epithelia in the murine EDE subject either as a consequence of inducing dry eye or due to treatment with 0.1% ADP 355 or with Lifitegrast 5% alone or with the combination of 0.1% ADP 355+Lifitegrast 5%. […] Corneal staining was assessed in four quadrants using a 4-point scale with 16 being the maximum score.
Briefly, fluorescein dye (1 μï) was instilled into the eye and then the eye was washed with saline. […] The average score from the five regions was recorded. […]

Assay [2] has the same test system. The assay is described as follows: Tear volume by phenol red thread tear test in experimental dry eye mice (Example 3). To be noted: 0.01% in BSS; for tear production, as measured by tear volume, compared to untreated or BSS treated EDE mice: topical 2 μl/eye 3 times a day, day 5 and day 10, p-value<0.05 vs. EDE; for difference in tear volume among those treated with ADP355, ADP399 and globular adiponectin: topical, EDE mice. As to the method:
(§1) Experimental dry eye (EDE) was induced in 8-week old female C57BL/6 mice by subcutaneous injection of 0.5 mg/0.2 mL scopolamine hydrobromide (Sigma-Aldrich, St. Louis, Mo.) three times a day (9 AM, 1:30 PM and 6 PM). A dose of 0.3 mL scopolamine hydrobromide was administered at each injection. The mice were also exposed to an air draft and 30% ambient humidity. 6 experimental groups used in this study included: (1) untreated control mice (UT; no dry eye treatment and no topical treatment); (2) untreated EDE control mice (EDE; received no topical administration); (3) EDE control mice received a balanced salt solution (BSS); (4) EDE mice received 0.01% single chain adiponectin peptidomimetic (ADP355) in BSS; (5) EDE mice receiving 0.01% peptide dimer adiponectin peptidomimetic (ADP399) in BSS; and (6) EDE mice receiving 0.01% recombinant globular adiponectin (gAdipo) in BSS. Each group included 5 mice. EDE mice treated with BSS received topical bilateral administration of 2 μï/eye, 3 times a day. EDE mice treated with ADP355 received topical bilateral administration of 2 μï/eye, 3 times a day. EDE mice treated with ADP-399 received topical bilateral administration of 2 μï/eye, 3 times a day. The gAdipo treated mice served as a positive treatment control. Mice were evaluated at baseline, day 5 and day 10 after the treatment initiation. In some experiments, ADP355, ADP-399 and gAdipo were resuspended in 0.01% BSA.
Tear volume was measured using a phenol red thread tear test. Briefly, a cotton thread treated with phenol red at its tip (Zone-Quick; Oasis, Glendora, Calif.) was held with jeweler's forceps and placed in the tear meniscus of the lateral canthus for 20 sees to contact tear fluid. Using a microscope, the length of the red portion (wet portion) of the thread was measured in millimeters. A standard curve was derived to convert the distance measurement into tear volume.

For assay [3] the test system is unchanged. The assay is described as follows: Corneal fluorescein staining in experimental dry eye mice (Example 3). To be noted: 0.01% in BSS; for corneal staining (corneal irregularity) compared to untreated EDE mice: topical 3 times a day, score 0-4, day 5 and day 10, p-value<0.05 vs. EDE; for corneal surfaces compared to untreated normal mice (UT) and positive control gAdipo-treated mice: topical, EDE mice. Here is the method:
as §1
The severity of corneal epithelial damage was evaluated by corneal fluorescein staining. Briefly, 1% fluorescein dye (1 μï) was instilled into the eye and then the eye was washed with saline. 10 minutes after application of the dye, the eye was photographed with a slip lamp microscope using a cobalt blue light. The stained area was graded using a scoring system by two blinded observers. […] The average score from the five regions was recorded. […] In addition, the adiponectin peptidomimetic-treated mice (ADP355 and ADP-399) had corneal surfaces that were similar to those of untreated normal mice (UT) and positive control globular adiponectin-treated mice (gAdipo). The corneal surface scores in all groups at day 10 were similar to those at day 5 after treatment initiation.

In the case of `CS(=O)(=O)c1cccc(C[C@H](NC(=O)c2c(Cl)cc3c(c2Cl)CCN(C(=O)c2ccc4ccoc4c2)C3)C(=O)O)c1` [Lifitegrast, reference compound], in assay [1], the “corneal disruptions resulting from induced dry eye (corneal staining grade) vs untreated eyes (BSS)” value is reported as “improved corneal disruptions”.

Take “(DAsn-Ile-Pro-Nva-Leu-Tyr-DSer-Phe-Ala-DSer-His-Pro)2-Dab-NH2 ([dN]IP[Nva]LY[dS]FA[dS]HP[Dab′]-NH2; also: branched dimer: two chains joined via C-terminal Dab) [ADP399, linear branched dimer of ADP355]”: in assay [2], the “tear production, as measured by tear volume, compared to untreated or BSS treated EDE mice” value is reported as “higher”; the “difference in tear volume among those treated with ADP355, ADP399 and globular adiponectin” value is “no significant difference”. In addition, in assay [3], the “corneal staining (corneal irregularity) compared to untreated EDE mice” value was “less corneal staining”; the “corneal surfaces compared to untreated normal mice (UT) and positive control gAdipo-treated mice” value is listed as “similar”.

Take “DAsn-Ile-Pro-Nva-Leu-Tyr-DSer-Phe-Ala-DSer-NH2 ([dN]IP[Nva]LY[dS]FA[dS]-NH2; N-terminus assumed; SMILES CCC[C@H](NC(=O)[C@@H]1CCCN1C(=O)[C@@H](NC(=O)[C@H](N)CC(N)=O)[C@@H](C)CC)C(=O)N[C@@H](CC(C)C)C(=O)N[C@@H](Cc1ccc(O)cc1)C(=O)N[C@H](CO)C(=O)N[C@@H](Cc1ccccc1)C(=O)N[C@@H](C)C(=O)N[C@H](CO)C(N)=O) [ADP355, single chain adiponectin peptidomimetic]”: in assay [2], the “tear production, as measured by tear volume, compared to untreated or BSS treated EDE mice” value is “higher”; the “difference in tear volume among those treated with ADP355, ADP399 and globular adiponectin” value is on record as “no significant difference”. In addition, in assay [3], the “corneal staining (corneal irregularity) compared to untreated EDE mice” value is “less corneal staining”; the “corneal surfaces compared to untreated normal mice (UT) and positive control gAdipo-treated mice” value was “similar”. Besides, the “corneal disruptions resulting from induced dry eye (corneal staining grade) vs untreated eyes (BSS)” value in assay [1] is on record as “improved corneal disruptions”.

The values are drawn from US10537608B2, “Adiponectin peptidomimetics for treating ocular disorders” (Allysta Pharmaceuticals, Inc., priority 2015, dated 2020).
